Tests used:
Format in all cases: biochemical
JAK1 = target: T1, JAK1 (Homo sapiens, UniProt P23458); assay: JAK1 Inhibition Assay (Omnia kinase fluorescence peptide substrate assay); conditions: averaged IC50 ranges; assay of Example B; 40 μM (Km app) or 1 mM ATP, 15 nM JAK1
T1 construct: purchased Invitrogen Corporation, Carlsbad, Calif; PV4775

JAK3 = target: T2, JAK3 (Homo sapiens, UniProt P52333); assay: JAK3 Inhibition Assay (Omnia kinase fluorescence peptide substrate assay); conditions: averaged IC50 ranges; assay of Example D; 10 μM (Km app) or 1 mM ATP, 2.5 nM JAK3
T2 construct: purchased Invitrogen Corporation, Carlsbad, Calif; PV4080
T2 sequence (P52333 1-1124): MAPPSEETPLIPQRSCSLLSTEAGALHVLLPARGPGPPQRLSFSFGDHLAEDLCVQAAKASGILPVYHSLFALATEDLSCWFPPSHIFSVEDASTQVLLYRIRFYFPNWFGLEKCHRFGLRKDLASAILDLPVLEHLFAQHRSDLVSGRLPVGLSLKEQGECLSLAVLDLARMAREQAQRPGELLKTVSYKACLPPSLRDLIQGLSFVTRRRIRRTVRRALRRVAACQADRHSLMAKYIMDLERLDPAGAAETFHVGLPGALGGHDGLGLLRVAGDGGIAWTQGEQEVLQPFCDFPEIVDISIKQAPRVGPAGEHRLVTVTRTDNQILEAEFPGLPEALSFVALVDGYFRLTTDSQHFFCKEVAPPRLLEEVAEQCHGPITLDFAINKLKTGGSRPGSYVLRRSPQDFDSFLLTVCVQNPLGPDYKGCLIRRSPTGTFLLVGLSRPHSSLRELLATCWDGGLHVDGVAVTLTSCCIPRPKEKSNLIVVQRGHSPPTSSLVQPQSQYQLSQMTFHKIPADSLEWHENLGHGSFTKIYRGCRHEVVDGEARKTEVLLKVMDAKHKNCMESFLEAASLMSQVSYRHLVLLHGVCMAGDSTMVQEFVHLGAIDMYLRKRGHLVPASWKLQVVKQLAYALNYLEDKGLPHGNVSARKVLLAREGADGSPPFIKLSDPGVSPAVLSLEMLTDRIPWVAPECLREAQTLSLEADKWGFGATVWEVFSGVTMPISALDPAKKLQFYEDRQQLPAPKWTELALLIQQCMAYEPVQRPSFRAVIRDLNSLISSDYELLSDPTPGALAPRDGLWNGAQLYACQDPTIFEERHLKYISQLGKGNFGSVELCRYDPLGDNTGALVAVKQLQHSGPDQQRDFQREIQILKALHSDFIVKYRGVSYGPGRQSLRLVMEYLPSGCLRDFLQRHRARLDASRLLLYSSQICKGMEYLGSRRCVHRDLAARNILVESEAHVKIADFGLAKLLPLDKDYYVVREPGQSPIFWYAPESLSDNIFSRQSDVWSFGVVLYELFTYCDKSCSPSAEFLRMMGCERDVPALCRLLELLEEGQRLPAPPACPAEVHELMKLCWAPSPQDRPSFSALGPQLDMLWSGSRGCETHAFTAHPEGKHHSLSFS
How it was run: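 Kinase at 2.5 nM with 10 µM Omnia Y7 peptide and 10 µM (Km app) or 1 mM ATP in 25 mM HEPES pH 7.4, 10 mM MgCl2, 1 mM DTT, 0.01% Triton X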

Human Tyk2 kinase domain = target: T3, Human Tyk2 kinase domain (Homo sapiens, UniProt P29597); assay: Tyk2 Inhibition Assay (Omnia kinase fluorescence peptide substrate assay); conditions: averaged IC50 ranges; assay of Example A; 10 μM (Km app) or 1 mM ATP, 2 nM Tyk2
T3 construct: comprising amino acids 886 to 1187 with 10 additional histidine residues; 10xHis (histidine tag) (C, cleaved yes); made in house
T3 sequence (P29597 886-1187): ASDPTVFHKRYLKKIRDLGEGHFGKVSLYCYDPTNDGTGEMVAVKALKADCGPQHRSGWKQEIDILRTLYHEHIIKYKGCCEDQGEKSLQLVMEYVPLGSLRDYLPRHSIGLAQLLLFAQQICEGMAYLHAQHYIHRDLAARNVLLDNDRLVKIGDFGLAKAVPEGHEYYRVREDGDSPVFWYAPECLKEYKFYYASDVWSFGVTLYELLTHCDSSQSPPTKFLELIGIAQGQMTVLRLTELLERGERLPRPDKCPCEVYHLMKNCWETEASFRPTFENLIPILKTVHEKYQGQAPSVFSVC
How it was run: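 2 nM His-tag-cleaved kinase domain (aa 886–1187) with 8 μM Omnia Y12 peptide, 10 μM (Km app) or 1 mM ATP, pH 7.4 HEPES/10 mM MgCl2, 2% DMSO. Fluorescence (ex 360/em 485 nm) every 50 s for 45 min; IC50 from 4-parameter fit of POC, top dose 10 μM.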

JAK2 = target: T4, JAK2 (Homo sapiens, UniProt O60674); assay: JAK2 Inhibition Assay (Omnia kinase fluorescence peptide substrate assay); conditions: averaged IC50 ranges; assay of Example C; 25 μM (Km app) or 1 mM ATP, 5 nM JAK2
T4 construct: purchased Invitrogen Corporation, Carlsbad, Calif; PV4288
How it was run: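 5 nM JAK2 phosphorylated 10 μM Omnia Y7 peptide with ATP at 25 μM (Km app) or 1 mM, in 25 mM HEPES pH 7.4, 10 mM MgCl2, 0.01% Triton X-100, 1 mM DTT, 2% DMSO. Fluorescence (360/485 nm) was read every 50 s for 45 min. 10-point 3-fold series from 10 μM; POC versus uninhibited and background controls, 4-parameter logistic IC50.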

T4 sequence (O60674 whole entry): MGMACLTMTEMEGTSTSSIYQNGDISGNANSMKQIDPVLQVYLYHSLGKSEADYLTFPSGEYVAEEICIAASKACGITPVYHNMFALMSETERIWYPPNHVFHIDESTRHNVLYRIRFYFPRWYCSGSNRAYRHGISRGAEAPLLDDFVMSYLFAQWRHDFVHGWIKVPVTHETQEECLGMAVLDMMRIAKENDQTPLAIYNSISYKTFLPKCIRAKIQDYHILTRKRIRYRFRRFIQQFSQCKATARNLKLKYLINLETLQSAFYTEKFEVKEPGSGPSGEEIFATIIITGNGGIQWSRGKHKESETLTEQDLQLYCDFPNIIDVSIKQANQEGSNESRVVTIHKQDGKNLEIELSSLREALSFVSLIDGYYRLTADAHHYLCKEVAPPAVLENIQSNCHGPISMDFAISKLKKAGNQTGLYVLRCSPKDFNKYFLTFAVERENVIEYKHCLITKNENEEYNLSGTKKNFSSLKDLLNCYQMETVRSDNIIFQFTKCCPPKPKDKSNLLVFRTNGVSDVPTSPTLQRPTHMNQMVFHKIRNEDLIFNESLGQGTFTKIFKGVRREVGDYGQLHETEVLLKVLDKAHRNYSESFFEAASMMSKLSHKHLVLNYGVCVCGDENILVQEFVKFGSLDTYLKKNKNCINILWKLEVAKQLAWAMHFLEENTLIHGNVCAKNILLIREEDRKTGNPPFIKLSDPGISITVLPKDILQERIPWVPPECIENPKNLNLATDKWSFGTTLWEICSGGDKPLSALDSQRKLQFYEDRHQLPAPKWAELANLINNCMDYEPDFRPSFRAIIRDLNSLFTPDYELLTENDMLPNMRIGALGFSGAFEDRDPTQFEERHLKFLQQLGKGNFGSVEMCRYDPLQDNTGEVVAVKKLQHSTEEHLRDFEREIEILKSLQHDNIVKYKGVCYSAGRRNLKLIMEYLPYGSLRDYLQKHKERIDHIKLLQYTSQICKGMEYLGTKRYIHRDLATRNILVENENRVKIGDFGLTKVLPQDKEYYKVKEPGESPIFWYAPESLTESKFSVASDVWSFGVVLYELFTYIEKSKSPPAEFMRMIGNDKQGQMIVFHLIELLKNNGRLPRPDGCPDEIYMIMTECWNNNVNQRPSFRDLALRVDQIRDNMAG
T1 sequence (P23458 whole entry): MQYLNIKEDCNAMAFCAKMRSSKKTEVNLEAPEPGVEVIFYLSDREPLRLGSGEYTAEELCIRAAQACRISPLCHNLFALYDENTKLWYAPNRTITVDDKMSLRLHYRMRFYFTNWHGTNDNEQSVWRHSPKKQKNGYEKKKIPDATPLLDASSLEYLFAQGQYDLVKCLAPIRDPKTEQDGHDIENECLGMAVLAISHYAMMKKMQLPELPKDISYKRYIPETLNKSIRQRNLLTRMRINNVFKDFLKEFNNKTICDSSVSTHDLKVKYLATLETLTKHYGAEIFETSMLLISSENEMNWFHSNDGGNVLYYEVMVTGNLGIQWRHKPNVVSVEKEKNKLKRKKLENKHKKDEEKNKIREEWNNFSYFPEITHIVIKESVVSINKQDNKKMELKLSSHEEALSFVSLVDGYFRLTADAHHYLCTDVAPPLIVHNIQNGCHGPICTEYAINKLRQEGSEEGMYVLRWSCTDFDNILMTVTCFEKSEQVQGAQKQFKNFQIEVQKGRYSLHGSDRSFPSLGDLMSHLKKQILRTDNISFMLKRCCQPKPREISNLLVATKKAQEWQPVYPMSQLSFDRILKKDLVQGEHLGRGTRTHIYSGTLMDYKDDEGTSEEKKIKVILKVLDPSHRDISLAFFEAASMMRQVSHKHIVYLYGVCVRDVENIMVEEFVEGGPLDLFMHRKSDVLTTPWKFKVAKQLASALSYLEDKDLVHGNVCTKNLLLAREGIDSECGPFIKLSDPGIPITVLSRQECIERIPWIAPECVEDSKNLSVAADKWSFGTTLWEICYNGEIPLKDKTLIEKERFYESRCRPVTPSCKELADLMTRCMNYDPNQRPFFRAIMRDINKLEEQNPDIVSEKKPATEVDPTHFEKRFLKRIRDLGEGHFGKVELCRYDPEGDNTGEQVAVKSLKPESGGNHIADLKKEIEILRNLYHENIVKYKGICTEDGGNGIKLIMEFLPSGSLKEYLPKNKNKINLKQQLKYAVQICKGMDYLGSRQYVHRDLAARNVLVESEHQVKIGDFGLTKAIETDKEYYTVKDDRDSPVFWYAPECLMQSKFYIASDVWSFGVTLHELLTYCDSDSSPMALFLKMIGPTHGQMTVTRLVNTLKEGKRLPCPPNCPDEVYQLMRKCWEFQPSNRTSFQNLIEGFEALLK

SMILES | IC50 (JAK1) [nM] | IC50 (JAK3) [nM] | IC50 (Human Tyk2 kinase domain) [nM] | IC50 (JAK2) [nM]
CN1CCc2ccc(-c3cc4nccn4c(-c4cnn(C(CC#N)C5CC5)c4)n3)cc2C1 (stereo not shown) [Example 55, 3-Cyclopropyl-3-(4-(7-(2-methyl-1,2,3,4-tetrahydroisoquinolin-7-yl)imidazo[1,2-c]pyrimidin-5-yl)-1H-pyrazol-1-yl)propanenitrile] | 10 to 100 | 100 to 1000 | 10 to 100 | 10 to 100
Cc1ccc(-c2cc3nccn3c(-c3cnn(C(CC#N)C4CC4)c3)n2)cn1 (stereo not shown) [Example 49, 3-Cyclopropyl-3-(4-(7-(6-methylpyridin-3-yl)imidazo[1,2-c]pyrimidin-5-yl)-1H-pyrazol-1-yl)propanenitrile] | 100 to 1000 | > 1000 | 10 to 100 | 100 to 1000
CC(=O)N1CCC(CC#N)(n2cc(-c3nc(-c4cnn(C)c4)cc4nccn34)cn2)C1 (stereo not shown) [Example 134, 2-(1-acetyl-3-(4-(7-(1-methyl-1H-pyrazol-4-yl)imidazo[1,2-c]pyrimidin-5-yl)-1H-pyrazol-1-yl)pyrrolidin-3-yl)acetonitrile] | > 1000 | > 1000 | 100 to 1000 | 100 to 1000
CS(=O)(=O)CCn1cc(-c2cc3nccn3c(-c3ccn(C4(CC#N)CN(CC(F)(F)F)C4)n3)n2)cn1 [Example 143, 2-(3-(3-(7-(1-(2-(methylsulfonyl)ethyl)-1H-pyrazol-4-yl)imidazo[1,2-c]pyrimidin-5-yl)-1H-pyrazol-1-yl)-1-(2,2,2-trifluoroethyl)azetidin-3-yl)acetonitrile] | 100 to 1000 | > 1000 | < 10 | 10 to 100
Cn1cc(-c2cc3nccn3c(-c3cnn(C4(CC#N)CN(S(=O)(=O)C5CC5)C4)c3)n2)cn1 [Example 95, 2-(1-(cyclopropylsulfonyl)-3-(4-(7-(1-methyl-1H-pyrazol-4-yl)imidazo[1,2-c]pyrimidin-5-yl)-1H-pyrazol-1-yl)azetidin-3-yl)acetonitrile] | 10 to 100 | > 1000 | < 10 | 10 to 100
Cn1cc(-c2cc3nccn3c(-c3cnn(C4(CC#N)CN(C(=O)C5(C(F)(F)F)CC5)C4)c3)n2)cn1 [Example 65, 2-(3-(4-(7-(1-Methyl-1H-pyrazol-4-yl)imidazo[1,2-c]pyrimidin-5-yl)-1H-pyrazol-1-yl)-1-(1-(trifluoromethyl)cyclopropanecarbonyl)azetidin-3-yl)acetonitrile] | 10 to 100 | 100 to 1000 | 10 to 100 | 10 to 100
Cn1cc(-c2cc3nccn3c(-c3ccn(C4(CC#N)CN(CC(F)(F)F)C4)c3)n2)cn1 [Example 128, 2-(3-(3-(7-(1-Methyl-1H-pyrazol-4-yl)imidazo[1,2-c]pyrimidin-5-yl)-1H-pyrrol-1-yl)-1-(2,2,2-trifluoroethyl)azetidin-3-yl)acetonitrile] | 100 to 1000 | > 1000 | < 10 | 10 to 100
N#CCC1(n2cc(-c3nc(C4CC4)cc4nccn34)cn2)CN(CC(F)(F)F)C1 [Example 149, 2-(3-(4-(7-cyclopropylimidazo[1,2-c]pyrimidin-5-yl)-1H-pyrazol-1-yl)-1-(2,2,2-trifluoroethyl)azetidin-3-yl)acetonitrile] | > 1000 | > 1000 | 100 to 1000 | > 1000
Cn1cc(-c2cc3nccn3c(-c3cnn(C(CC#N)c4ccccn4)c3)n2)cn1 (stereo not shown) [Example 6, 3-(4-(7-(1-methyl-1H-pyrazol-4-yl)imidazo[1,2-c]pyrimidin-5-yl)-1H-pyrazol-1-yl)-3-(pyridin-2-yl)propanenitrile] | 100 to 1000 | > 1000 | 10 to 100 | 10 to 100
CN1CCN(c2ccc(-c3cc4nccn4c(-c4cnn(C(CC#N)C5CC5)c4)n3)cn2)CC1 (stereo not shown) [Example 51, 3-cyclopropyl-3-(4-(7-(6-(4-methylpiperazin-1-yl)pyridin-3-yl)imidazo[1,2-c]pyrimidin-5-yl)-1H-pyrazol-1-yl)propanenitrile] | 100 to 1000 | 100 to 1000 | < 10 | 10 to 100

— patent publication US8962596B2 (Array BioPharma Inc., priority 2010, dated 2015)
